{"source": "ChEMBL document CHEMBL1201862", "about": "“PubChem BioAssay data set” (2004)", "key": {"[1]": {"test": "luciferase reporter signal reduction – luminescence, H4-C neuroglioblastoma cells, dose response (AID 2458);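 note: H4 neuroglioblastoma cells stably carrying a luciferase reporter gene fusion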", "format": "functional, cell-based"}, "[2]": {"test": "luciferase reporter signal suppression in cells – H4 neuroglioma cells, luminescence, dose response (AID 1990)", "format": "functional, cell-based"}, "[3]": {"test": "alpha-synuclein stem-loop luciferase translation blockers – H4 neuroglioma cells, luminescence, confirmation (AID 1988)", "format": "functional, cell-based"}, "cells": {"test": "cells", "format": "functional, cell-based"}, "[4]": {"test": "alpha-synuclein stem-loop translation blockers – luminescence, H4 neuroglioblastoma cells, dose confirmation, confirmation (AID 2454)", "format": "functional, cell-based"}, "[5]": {"biological_target": "Peroxisome proliferator-activated receptor gamma/Nuclear receptor corepressor 2 (Homo sapiens, UniProt P37231+Q9Y618)", "format": "functional"}, "[6]": {"biological_target": "T1, E3 ubiquitin-protein ligase XIAP (Homo sapiens, UniProt P98170)", "T1 sequence (P98170 whole entry)": "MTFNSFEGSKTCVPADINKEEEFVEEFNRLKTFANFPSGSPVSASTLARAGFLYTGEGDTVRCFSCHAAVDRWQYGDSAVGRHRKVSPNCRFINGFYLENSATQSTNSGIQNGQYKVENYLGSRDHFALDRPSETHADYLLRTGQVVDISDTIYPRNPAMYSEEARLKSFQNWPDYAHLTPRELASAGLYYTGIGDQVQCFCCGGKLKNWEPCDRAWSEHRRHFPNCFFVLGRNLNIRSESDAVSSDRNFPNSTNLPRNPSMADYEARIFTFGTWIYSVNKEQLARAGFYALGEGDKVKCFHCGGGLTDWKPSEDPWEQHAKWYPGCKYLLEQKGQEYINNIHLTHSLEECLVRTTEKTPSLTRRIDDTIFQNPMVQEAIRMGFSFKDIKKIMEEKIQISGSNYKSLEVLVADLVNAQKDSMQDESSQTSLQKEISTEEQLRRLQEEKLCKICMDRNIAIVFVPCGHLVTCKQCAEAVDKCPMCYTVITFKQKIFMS", "test": "Counter Screen using XIAP-Bir3 for Chemical Antagonists of Bir1/2 domains of IAP-family anti-apoptotic proteins. [Related pubchem assays (depositor defined):AID1018, AID1449, AID1514, AID1638, AID1749, AID1750, AID488957, AID488963]"}, "[7]": {"biological_target": "T1, E3 ubiquitin-protein ligase XIAP", "test": "small molecules displacing peptide from XIAP – biochemical, IAP family, fluorescence polarization (AID 1018)", "format": "functional"}, "[8]": {"biological_target": "Photoreceptor-specific nuclear receptor (Homo sapiens, UniProt Q9Y5X4)", "format": "functional"}, "[9]": {"biological_target": "T2, Eukaryotic translation initiation factor 2-alpha kinase 3 (Homo sapiens, UniProt Q9NZJ5)", "T2 sequence (Q9NZJ5 whole entry)": "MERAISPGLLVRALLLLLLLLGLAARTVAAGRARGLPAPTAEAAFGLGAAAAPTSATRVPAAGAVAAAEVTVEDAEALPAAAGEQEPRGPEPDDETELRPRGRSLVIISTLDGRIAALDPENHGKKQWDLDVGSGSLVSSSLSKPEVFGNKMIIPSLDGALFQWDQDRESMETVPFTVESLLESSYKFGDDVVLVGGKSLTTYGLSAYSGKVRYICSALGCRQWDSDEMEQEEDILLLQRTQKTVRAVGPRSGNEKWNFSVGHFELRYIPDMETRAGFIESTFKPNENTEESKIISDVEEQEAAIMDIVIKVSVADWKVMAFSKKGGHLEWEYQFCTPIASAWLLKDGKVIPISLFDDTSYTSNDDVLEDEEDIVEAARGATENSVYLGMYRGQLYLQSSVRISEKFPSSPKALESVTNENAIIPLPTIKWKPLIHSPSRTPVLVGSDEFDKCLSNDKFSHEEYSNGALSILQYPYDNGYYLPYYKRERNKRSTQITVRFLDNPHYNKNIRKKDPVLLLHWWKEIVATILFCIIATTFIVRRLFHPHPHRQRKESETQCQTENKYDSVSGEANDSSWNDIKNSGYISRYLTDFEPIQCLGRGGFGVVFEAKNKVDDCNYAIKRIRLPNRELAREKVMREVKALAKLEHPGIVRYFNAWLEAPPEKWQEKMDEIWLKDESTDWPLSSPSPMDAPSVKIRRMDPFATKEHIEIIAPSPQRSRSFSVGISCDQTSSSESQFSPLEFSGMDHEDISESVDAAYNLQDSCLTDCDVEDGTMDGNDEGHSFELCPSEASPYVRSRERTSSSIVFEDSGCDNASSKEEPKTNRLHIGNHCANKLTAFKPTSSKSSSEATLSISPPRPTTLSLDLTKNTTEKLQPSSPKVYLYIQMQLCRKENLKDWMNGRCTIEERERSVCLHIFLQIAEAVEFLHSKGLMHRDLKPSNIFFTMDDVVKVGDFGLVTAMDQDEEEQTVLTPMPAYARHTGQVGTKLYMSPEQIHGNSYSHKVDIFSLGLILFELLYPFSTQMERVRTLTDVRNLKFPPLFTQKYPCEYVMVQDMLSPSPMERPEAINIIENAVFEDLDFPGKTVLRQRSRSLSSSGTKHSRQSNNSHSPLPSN", "test": "Dose response cell-based high-throughput screening assay to measure PERK inhibition. [Related pubchem assays: 1416 ]", "format": "functional"}, "[10]": {"biological_target": "T2, Eukaryotic translation initiation factor 2-alpha kinase 3", "test": "Counterscreen assay for PERK inhibitors: Dose response cell-based high throughput screening assay to measure inhibition of PERK at 6 hours. [Related pubchem assays: 1522, 1416 ]", "format": "functional"}, "Staphylococcus aureus": {"test_system": "Staphylococcus aureus", "test": "Inhibitors of Bacterial Quorum Sensing Structure Activity Relationship (SAR) Analysis: Dose Response Assay. [Related pubchem assays: 700, 527 ]", "format": "functional, organism-based"}, "Chaperone protein dnaK": {"biological_target": "Chaperone protein dnaK (Escherichia coli, UniProt C3TRK2)", "test": "E. coli DnaK binders, calorimetric Kd – biophysical, isothermal titration calorimetry, beta-domain, full-length DnaK, orthogonal assay for DnaK modulator project, SAR follow-up (AID 1495)"}, "[11]": {"biological_target": "Glyceraldehyde-3-phosphate dehydrogenase (Homo sapiens, UniProt P04406)"}, "[12]": {"biological_target": "Heat shock cognate 71 kDa protein (Homo sapiens, UniProt P11142)", "test": "In Vitro Hsc70 Dose Response Fluorescence Polarization Assay. [Related pubchem assays: 1072 ]"}, "[13]": {"biological_target": "Heat shock 70 kDa protein 1A (Homo sapiens, UniProt P0DMV8)", "sequence (P0DMV8 whole entry)": "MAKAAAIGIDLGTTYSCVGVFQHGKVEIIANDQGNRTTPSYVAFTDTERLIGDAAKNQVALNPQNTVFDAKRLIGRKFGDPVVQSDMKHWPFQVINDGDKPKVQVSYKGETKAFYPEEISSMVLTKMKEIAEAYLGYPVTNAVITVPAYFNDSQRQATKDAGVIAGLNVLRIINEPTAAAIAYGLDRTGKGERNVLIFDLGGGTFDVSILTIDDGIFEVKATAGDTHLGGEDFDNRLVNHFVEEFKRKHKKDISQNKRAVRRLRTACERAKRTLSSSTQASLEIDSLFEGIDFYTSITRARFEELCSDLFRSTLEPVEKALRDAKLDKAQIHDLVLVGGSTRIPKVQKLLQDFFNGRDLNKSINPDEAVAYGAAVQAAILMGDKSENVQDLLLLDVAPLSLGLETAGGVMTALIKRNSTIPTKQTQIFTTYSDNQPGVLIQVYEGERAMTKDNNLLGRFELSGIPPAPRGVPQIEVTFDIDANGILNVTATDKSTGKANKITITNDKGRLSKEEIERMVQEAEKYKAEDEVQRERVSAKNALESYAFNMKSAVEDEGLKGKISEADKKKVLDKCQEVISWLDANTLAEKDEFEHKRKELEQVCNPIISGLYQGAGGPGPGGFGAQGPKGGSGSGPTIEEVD", "test": "inhibition of Hsp70 binding activity – biochemical, fluorescence polarization, SAR follow-up (AID 1072)"}, "[14]": {"biological_target": "Induced myeloid leukemia cell differentiation protein Mcl-1 (Homo sapiens, UniProt Q07820)", "format": "functional"}, "Perilipin-1/ABHD5": {"biological_target": "Perilipin-1/ABHD5 (Homo sapiens, UniProt O60240+Q8WTS1)", "test": "Luminescence-based biochemical high throughput dose response assay for inhibitors of the interaction of the lipase co-activator protein, abhydrolase domain containing 5 (ABHD5) with perilipin-1 (PLIN1) (2K validation set). [Related pubchem assays (depositor defined):AID493027, AID493057]"}, "[15]": {"biological_target": "DNA dC->dU-editing enzyme APOBEC-3A (Homo sapiens, UniProt P31941)", "sequence (P31941 whole entry)": "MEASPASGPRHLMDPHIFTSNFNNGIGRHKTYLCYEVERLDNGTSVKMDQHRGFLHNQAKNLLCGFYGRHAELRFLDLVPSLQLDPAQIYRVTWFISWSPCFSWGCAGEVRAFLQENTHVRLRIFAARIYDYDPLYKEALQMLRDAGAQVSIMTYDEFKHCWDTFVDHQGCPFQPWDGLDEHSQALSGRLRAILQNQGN", "test": "A3A deaminase inhibition for selectivity – biochemical, dose response (AID 504722)", "format": "functional"}, "[16]": {"biological_target": "T3, Zinc finger protein mex-5 (Caenorhabditis elegans, UniProt Q9XUB2)", "T3 sequence (Q9XUB2 whole entry)": "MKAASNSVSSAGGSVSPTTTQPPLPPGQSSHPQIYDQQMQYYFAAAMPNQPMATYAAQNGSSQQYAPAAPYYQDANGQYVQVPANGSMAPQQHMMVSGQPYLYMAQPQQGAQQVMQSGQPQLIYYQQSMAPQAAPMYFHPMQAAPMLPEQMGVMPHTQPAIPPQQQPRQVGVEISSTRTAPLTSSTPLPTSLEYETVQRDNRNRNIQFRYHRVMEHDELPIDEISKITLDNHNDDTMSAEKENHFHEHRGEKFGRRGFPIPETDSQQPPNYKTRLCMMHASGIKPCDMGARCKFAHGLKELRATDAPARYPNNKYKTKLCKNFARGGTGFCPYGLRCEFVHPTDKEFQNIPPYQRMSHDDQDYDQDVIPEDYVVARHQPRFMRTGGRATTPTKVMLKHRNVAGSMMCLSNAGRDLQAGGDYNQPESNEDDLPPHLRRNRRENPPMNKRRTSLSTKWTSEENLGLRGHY", "test": "potency of MEX-5 RNA-binding blockers – biochemical, C. elegans, fluorescence polarization, dose response (AID 1960)"}, "Hexokinase HKDC1": {"biological_target": "Hexokinase HKDC1 (Homo sapiens, UniProt Q2TB90)", "test": "inhibition of HKDC1 glucose phosphorylation – biochemical, W721R variant, dose response (AID 504729)", "format": "functional"}, "Beta-galactosidase": {"biological_target": "Beta-galactosidase (Escherichia coli, UniProt Q8VNN2)", "sequence (Q8VNN2 whole entry)": "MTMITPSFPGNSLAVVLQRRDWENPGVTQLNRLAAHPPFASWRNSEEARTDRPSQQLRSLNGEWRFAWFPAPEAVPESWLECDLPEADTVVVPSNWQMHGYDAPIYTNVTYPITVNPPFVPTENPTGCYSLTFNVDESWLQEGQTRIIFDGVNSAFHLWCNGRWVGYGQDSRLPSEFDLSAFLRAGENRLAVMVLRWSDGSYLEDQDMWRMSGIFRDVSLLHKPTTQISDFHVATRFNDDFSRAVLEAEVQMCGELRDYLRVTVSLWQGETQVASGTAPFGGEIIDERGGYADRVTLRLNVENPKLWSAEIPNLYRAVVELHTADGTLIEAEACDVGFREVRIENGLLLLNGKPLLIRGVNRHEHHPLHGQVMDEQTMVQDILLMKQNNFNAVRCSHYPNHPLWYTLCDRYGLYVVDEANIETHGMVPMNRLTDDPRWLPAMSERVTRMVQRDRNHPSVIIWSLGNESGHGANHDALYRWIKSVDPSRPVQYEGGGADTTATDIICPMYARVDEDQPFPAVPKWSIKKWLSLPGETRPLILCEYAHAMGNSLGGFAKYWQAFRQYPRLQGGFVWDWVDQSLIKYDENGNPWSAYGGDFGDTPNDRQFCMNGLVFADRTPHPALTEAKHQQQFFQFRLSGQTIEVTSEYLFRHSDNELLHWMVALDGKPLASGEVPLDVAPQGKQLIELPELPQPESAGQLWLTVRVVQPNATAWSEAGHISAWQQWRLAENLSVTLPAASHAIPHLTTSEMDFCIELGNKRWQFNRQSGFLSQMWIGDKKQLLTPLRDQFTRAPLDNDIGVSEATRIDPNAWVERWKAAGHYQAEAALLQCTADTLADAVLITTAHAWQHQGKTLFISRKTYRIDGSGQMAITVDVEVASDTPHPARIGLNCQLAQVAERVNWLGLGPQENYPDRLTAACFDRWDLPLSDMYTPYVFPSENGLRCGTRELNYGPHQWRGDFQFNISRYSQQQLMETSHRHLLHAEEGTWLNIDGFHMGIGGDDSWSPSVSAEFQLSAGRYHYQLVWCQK", "test": "detection-enzyme interference by beta-gal modulators – biochemical, E. coli enzyme, set 3, artefact control for CCR6 antagonist project, dose response (AID 504712)", "format": "functional"}, "[17]": {"biological_target": "T4, RNA-binding protein pos-1 (Caenorhabditis elegans, UniProt G5EF15)", "T4 sequence (G5EF15 whole entry)": "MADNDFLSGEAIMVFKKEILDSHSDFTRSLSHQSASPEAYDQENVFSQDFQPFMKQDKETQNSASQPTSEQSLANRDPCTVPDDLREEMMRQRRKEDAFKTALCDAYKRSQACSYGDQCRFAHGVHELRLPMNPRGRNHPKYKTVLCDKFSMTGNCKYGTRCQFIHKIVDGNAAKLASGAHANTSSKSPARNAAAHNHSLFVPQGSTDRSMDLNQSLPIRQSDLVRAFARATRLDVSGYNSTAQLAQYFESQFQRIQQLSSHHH", "test": "disruptors of C. elegans POS-1 RNA interaction – biochemical, fluorescence polarization, dose response (AID 1964);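 note: purified POS-1 fused to maltose binding protein made in E. coli; potency of compounds blocking POS-1 binding to fluorescent RNA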"}, "[18]": {"biological_target": "DNA dC->dU-editing enzyme APOBEC-3G (Homo sapiens, UniProt Q9HC16)", "sequence (Q9HC16 whole entry)": "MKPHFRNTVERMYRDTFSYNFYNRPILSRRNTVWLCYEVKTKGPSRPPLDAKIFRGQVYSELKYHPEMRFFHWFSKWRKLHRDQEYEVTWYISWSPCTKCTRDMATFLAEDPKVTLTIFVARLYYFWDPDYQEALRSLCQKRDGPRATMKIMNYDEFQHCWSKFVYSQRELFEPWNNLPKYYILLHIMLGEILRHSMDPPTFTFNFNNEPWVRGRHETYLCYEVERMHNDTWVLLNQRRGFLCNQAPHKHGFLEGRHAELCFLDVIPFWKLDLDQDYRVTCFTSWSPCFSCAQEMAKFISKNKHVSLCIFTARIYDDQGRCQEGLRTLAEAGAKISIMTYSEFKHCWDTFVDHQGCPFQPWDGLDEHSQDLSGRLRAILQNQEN", "test": "Dose Response confirmation of small molecule APOBEC3G DNA Deaminase Inhibitors via a fluorescence-based single-stranded DNA deaminase assay. [Related pubchem assays (depositor defined):AID493012, AID493028]", "format": "functional"}, "[19]": {"biological_target": "1-acylglycerol-3-phosphate O-acyltransferase ABHD5/Perilipin-5 (Homo sapiens, UniProt Q00G26+Q8WTS1)", "test": "Luminescence-based biochemical high throughput dose response assay for inhibitors of the interaction of the lipase co-activator protein, abhydrolase domain containing 5 (ABHD5) with perilipin-5 (MLDP; PLIN5) (2K validation set). [Related pubchem assays (depositor defined):AID493035, AID493241]"}, "[20]": {"biological_target": "Transitional endoplasmic reticulum ATPase (Homo sapiens, UniProt P55072, C522A)", "sequence (P55072 2-806 C522A limits assumed)": "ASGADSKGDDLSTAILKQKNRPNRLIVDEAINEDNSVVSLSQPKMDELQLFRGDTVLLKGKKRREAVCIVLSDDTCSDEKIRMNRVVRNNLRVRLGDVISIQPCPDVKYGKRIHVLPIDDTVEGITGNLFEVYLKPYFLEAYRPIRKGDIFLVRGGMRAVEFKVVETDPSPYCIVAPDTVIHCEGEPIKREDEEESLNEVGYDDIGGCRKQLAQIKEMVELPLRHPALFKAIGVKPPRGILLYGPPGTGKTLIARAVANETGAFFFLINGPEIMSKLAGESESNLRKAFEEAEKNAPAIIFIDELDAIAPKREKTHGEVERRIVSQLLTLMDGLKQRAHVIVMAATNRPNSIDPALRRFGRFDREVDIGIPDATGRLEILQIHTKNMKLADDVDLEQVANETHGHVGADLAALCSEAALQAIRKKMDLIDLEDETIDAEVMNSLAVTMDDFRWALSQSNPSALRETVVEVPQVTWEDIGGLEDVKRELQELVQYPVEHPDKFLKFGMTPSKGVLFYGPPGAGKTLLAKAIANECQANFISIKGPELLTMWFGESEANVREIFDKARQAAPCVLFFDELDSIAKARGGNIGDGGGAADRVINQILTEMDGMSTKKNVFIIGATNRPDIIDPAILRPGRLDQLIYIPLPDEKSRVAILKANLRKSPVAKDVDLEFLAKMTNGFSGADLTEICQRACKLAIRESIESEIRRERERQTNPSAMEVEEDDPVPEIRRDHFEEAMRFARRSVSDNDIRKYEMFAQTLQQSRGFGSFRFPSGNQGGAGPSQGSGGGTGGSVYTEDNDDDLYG", "test": "C522A mutant p97 ATPase inhibitors, dose response, counter-screen for p97 inhibitor project, biochemical, luminescence (AID 1544)"}, "[21]": {"biological_target": "Transitional endoplasmic reticulum ATPase (Homo sapiens, UniProt P55072)", "test": "p97 ATPase inhibitors, dose response, biochemical (AID 1534)"}, "Cytochrome P450 2D6": {"biological_target": "Cytochrome P450 2D6 (Homo sapiens, UniProt P10635)", "test": "qHTS Assay for Inhibitors and Substrates of Cytochrome P450 2D6. [Related pubchem assays: 410 ]", "format": "ADME", "settings": "read-out: Potency"}, "[22]": {"biological_target": "Eukaryotic translation initiation factor 4H (Homo sapiens, UniProt Q15056)", "test": "eIF4H binding inhibition – biochemical, uHTS, fluorescence polarization, translation initiation inhibitor project, primary screen (AID 2012)"}, "[23]": {"biological_target": "Polyadenylate-binding protein 1 (Homo sapiens, UniProt P11940)", "test": "blockers of PABP interaction with poly(A) – biochemical, fluorescence polarization, […] (AID 2014)"}, "[24]": {"test": "microbe, parasite or virus in culture", "format": "functional", "settings": "Mycobacterium tuberculosis"}, "[25]": {"test": "viability of PTEN-deleted HCT116 cells – cell-based, HCT116 PTEN knockout, dose response (AID 1047);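 note: cells exposed to compound for 60 hours before readout; potency for loss of cell viability measured by luminescence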", "format": "functional"}, "[26]": {"test": "viability of HCT116 lacking mutant beta-catenin – cell-based, human colon tumor, dose response (AID 1045);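 note: cells exposed to compound for 60 hours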", "format": "functional"}, "[27]": {"biological_target": "Neurotensin receptor type 1 (Homo sapiens, UniProt P30989)", "format": "functional"}, "[28]": {"test": "Luminescence Cell-Based Dose Retest to Confirm Inhibitors of Cancer Stem Cells. [Related pubchem assays (depositor defined):AID2717, AID2721]", "format": "functional", "settings": "Homo sapiens"}}, "note": "The source made the active and inactive calls.", "data": [{"smiles": "O=Cc1cn(Cc2ccc(F)cc2)c2ccccc12", "values": [{"measurement": "EC50", "setting": "[1]", "result": "1.85 µM (active)"}, {"measurement": "EC50", "setting": "[2]", "result": "7.56 µM (active)"}, {"measurement": "EC50", "setting": "[3]", "result": "< 0.1 µM (active)"}, {"measurement": "EC50", "setting": "cells", "result": "1.05 µM (active)"}, {"measurement": "EC50", "setting": "[4]", "result": "> 12 µM (inconclusive)"}]}, {"smiles": "Cc1cccc(-n2c(=S)[nH]c3c(oc4ccccc43)c2=O)c1", "values": [{"measurement": "IC50", "setting": "[5]", "result": "6.64 µM (active)"}, {"measurement": "IC50", "setting": "[6]", "result": "> 100 µM (inactive)"}, {"measurement": "IC50", "setting": "[7]", "result": "> 100 µM (not active)"}, {"measurement": "IC50", "setting": "[8]", "result": "5.11 µM (active)"}]}, {"smiles": "CCC(C(=O)Nc1cccc(C(=O)O)c1C)c1ccccc1", "note": "(stereo not given)", "values": [{"measurement": "EC50", "setting": "[9]", "result": "> 55.7 µM (not active)"}, {"measurement": "EC50", "setting": "[10]", "result": "> 55.7 µM (not active)"}]}, {"smiles": "O=C(Nc1ccc2c(c1)OCO2)C(c1ccccc1)N1CCCCC1", "note": "(stereo not given)", "values": [{"measurement": "IC50", "setting": "Staphylococcus aureus", "result": "1.26 µM (active)"}]}, {"smiles": "O=C(NCc1cc(Cl)cc(Cl)c1)c1cccs1", "values": [{"measurement": "Kd", "setting": "Chaperone protein dnaK", "result": "2.8 µM (active)"}]}, {"smiles": "O=C(Nc1ccc2c(c1)C1C=CCC1C(C(=O)O)N2)c1ccc(Cl)cc1Cl", "note": "(stereo not given)", "values": [{"measurement": "IC50", "setting": "[11]", "result": "> 100 µM (not active)"}, {"measurement": "IC50", "setting": "[12]", "result": "> 100 µM (not active)"}, {"measurement": "IC50", "setting": "[13]", "result": "> 100 µM (not active)"}]}, {"smiles": "O=C1C=CC(=O)C(C2=C3C(=O)N(CCc4ccccc4)CC(=O)N3CCC2)=C1", "values": [{"measurement": "IC50", "setting": "[14]", "result": "4.75 µM (not active)"}, {"measurement": "IC50", "setting": "Perilipin-1/ABHD5", "result": "4.37 µM (active)"}, {"measurement": "IC50", "setting": "[15]", "result": "> 100 µM (inactive)"}, {"measurement": "EC50", "setting": "[16]", "result": "14.9 µM (inconclusive)"}, {"measurement": "IC50", "setting": "Hexokinase HKDC1", "result": "3.73 µM (active)"}, {"measurement": "IC50", "setting": "Beta-galactosidase", "result": "> 66.6 µM (inactive)"}, {"measurement": "EC50", "setting": "[17]", "result": "45.9 µM (active)"}, {"measurement": "IC50", "setting": "[18]", "result": "8.15 µM (active)"}, {"measurement": "IC50", "setting": "[19]", "result": "5.72 µM (active)"}]}, {"smiles": "COC(=O)c1ccccc1NC(=S)NC(=O)c1ccccc1C", "values": [{"measurement": "IC50", "setting": "[20]", "result": "> 50 µM (not active)"}, {"measurement": "IC50", "setting": "[21]", "result": "> 50 µM (not active)"}]}, {"smiles": "CCN1CCC[C@@H]1CNC(=O)c1cc(S(N)(=O)=O)ccc1OC", "values": [{"measurement": "AC50", "setting": "Cytochrome P450 2D6", "result": "39.8 µM (inconclusive)"}]}, {"smiles": "CC(C)C(OC(=O)c1ccco1)C(=O)NCc1ccco1", "note": "(stereo not given)", "values": [{"measurement": "IC50", "setting": "[22]", "result": "58 µM (active)"}, {"measurement": "IC50", "setting": "[23]", "result": "> 100 µM (inactive)"}]}, {"smiles": "c1ccc(CN2CCC(Nc3nc(-c4ccccc4)nc4ccccc34)CC2)cc1", "values": [{"measurement": "CC50", "setting": "[24]", "result": "20.3 µM (active)"}, {"measurement": "EC50", "setting": "[25]", "result": "12.3 µM (active)"}, {"measurement": "EC50", "setting": "[26]", "result": "9.69 µM (active)"}, {"measurement": "EC50", "setting": "[27]", "result": "19.6 µM (active)"}, {"measurement": "AC50", "setting": "[28]", "result": "5.72 µM (active)"}]}]}
